How the values were obtained:
[1] = test system: TPA-induced mouse ear edema; assay: Anti-inflammatory activity, TPA-induced mouse ear edema; assay type: in vivo, ICR mice; conditions: for TPA-induced mouse ear edema: 0.5% in acetone
Method: In order to investigate the anti-inflammatory activity of the derivatives of the present invention, the animal experiments were performed as below. Seven-week-old male ICR mice were treated with TPA (12-O-tetradecanoylphorbol 13-acetate, […]) in the right ear. […] The same experiment was performed by treating hydrocortisone used as a treatment agent for inflammation as a control at the same concentration.
Subsequently, secondly, the adenosine derivative compound of the present invention was treated after 6 hours from TPA treatment. Twenty-four hours after TPA treatment, the animals were euthanized using the cervical dislocation method. Then, a right ear sample was obtained using a 6 mm diameter punch. The activity could be confirmed by weighing using a microbalance. The inhibition rate (%) was calculated using the following Equation 1.

[2] = target: T1, adenosine A3 receptor in rats expressed in Chinese hamster ovary (CHO) cells (Rattus norvegicus, UniProt P28647); assay: Binding affinity for rat adenosine A3 receptor expressed in CHO cells
T1 construct: expressed in transfected cells; host or cells: CHO
T1 sequence (P28647 1-320): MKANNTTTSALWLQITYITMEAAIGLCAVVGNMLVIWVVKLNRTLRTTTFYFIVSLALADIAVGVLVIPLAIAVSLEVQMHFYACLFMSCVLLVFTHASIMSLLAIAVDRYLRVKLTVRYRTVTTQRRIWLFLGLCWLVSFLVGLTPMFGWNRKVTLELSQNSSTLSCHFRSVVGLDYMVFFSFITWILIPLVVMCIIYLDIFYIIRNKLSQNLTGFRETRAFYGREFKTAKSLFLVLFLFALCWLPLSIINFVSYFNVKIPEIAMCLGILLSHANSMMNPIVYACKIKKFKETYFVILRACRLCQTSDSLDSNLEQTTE

[3] = target: T2, human adenosine A3 receptor (Homo sapiens, UniProt P0DMS8); assay: Antagonistic effect and cAMP inhibition test on adenosine A3 receptor (CHO cells, Cl-IB-MECA, Schild analysis); assay type: cell-based; conditions: different concentrations
T2 construct: expressed in transfected cells; host or cells: CHO (ATCC CCL-61)
T2 sequence (P0DMS8 1-318): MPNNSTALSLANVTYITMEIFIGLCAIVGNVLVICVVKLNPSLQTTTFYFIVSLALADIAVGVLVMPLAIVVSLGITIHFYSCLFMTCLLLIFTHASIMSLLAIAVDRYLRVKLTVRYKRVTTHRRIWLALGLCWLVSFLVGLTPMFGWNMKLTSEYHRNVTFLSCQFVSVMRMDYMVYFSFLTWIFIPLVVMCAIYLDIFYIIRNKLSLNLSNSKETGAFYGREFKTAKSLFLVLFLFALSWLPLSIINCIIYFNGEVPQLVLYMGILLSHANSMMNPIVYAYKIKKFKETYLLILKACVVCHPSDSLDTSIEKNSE

[4] = target: T3, human adenosine A2B receptor (Homo sapiens, UniProt P29275); assay: Agonist or antagonist activity at human adenosine A2B receptor; assay type: biochemical
T3 sequence (P29275 1-332): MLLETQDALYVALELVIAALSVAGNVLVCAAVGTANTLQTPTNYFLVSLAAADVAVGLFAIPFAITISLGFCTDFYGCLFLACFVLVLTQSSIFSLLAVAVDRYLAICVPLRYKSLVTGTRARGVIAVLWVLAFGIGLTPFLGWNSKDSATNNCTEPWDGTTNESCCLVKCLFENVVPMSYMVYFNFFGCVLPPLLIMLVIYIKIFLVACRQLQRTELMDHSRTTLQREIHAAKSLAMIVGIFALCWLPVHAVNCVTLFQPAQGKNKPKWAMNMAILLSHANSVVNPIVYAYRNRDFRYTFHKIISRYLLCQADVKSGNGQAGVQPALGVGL

[5] = test system: TIMP (TIMP 1, TIMP2); assay: TIMP enzyme protein and mRNA expression in trabecular meshwork tissue; assay type: in vivo, C57BL/6J mice; conditions: Example 2 oral 20 mg/kg once a day and 10 mg/kg twice a day; acetazolamide 4.17 mg/kg once a day
Method: (§1) In Experimental Example 10, the expression amounts of these proteins and mRNAs in MMP and TIMP enzymes were measured for the eye tissues of the respective laboratory animals which the measurement of the intraocular pressure was completed, and the results are shown in FIG. 14 to FIG. 17. FIG. 14 and FIG. 15 show protein expression amounts of MMP (MMP2, MMP9) and TIMP (TIMP 1, TIMP2) enzymes, respectively. FIG. 16 and FIG. 17 show mRNA expression levels. In FIG. 14 to FIG. 17, Normal represents the expression level of the animal to which the dexamethasone was not treated in Experimental Example 10, Control represents the expression level of the animal to which only the excipient was administered in Experimental Example 10, and Acetazolamide represents the expression level of the animal to which acetazolamide was administered in Experimental Example 10.

[6] = test system: extracellular matrix proteins (Fibronectin, SMA and MYOC); assay: Anti-fibrotic effect on trabecular meshwork tissue (immunostaining); assay type: in vivo, C57BL/6J mice; conditions: Example 2 oral 20 mg/kg once a day and 10 mg/kg twice a day; acetazolamide 4.17 mg/kg once a day
Method: In Experimental Example 10, the ocular tissues of each laboratory animal after measurement of intraocular pressure were extracted and sectioned and immunostaining using antibody was performed to confirm the expression of extracellular matrix proteins (Fibronectin, SMA and MYOC) and the results are shown in FIG. 13. In FIG. 13, Normal represents the trabecular meshwork of the animal which dexamethasone was not treated with in Experimental Example 10, Control represents the trabecular meshwork tissue of the animal to which only the excipient was administered in Experimental Example 10, Acetazolamide represents the trabecular meshwork tissue of the animal to which acetazolamide was administered in Experimental Example 10. Fluorescently stained tissue was observed under fluorescence microscope under the same conditions (magnification 200×, exposure time 1 sec).

[7] = test system: MMP (MMP2, MMP9); assay: MMP enzyme protein and mRNA expression in trabecular meshwork tissue; assay type: in vivo, C57BL/6J mice; conditions: Example 2 oral 20 mg/kg once a day and 10 mg/kg twice a day; acetazolamide 4.17 mg/kg once a day
Method: as §1

[8] = target: T4, human adenosine A3 receptor (hA3) (Homo sapiens, UniProt P0DMS8); assay: Binding affinity for human adenosine A3 receptor (CHO cells, [125I]AB-MECA); conditions: read-out: K(nM) hA3
T4 construct: expressed in transfected cells; host or cells: CHO (ATCC CCL-61)
T4 sequence (P0DMS8 1-318): T2 sequence (P0DMS8 1-318)
Method: The Chinese hamster ovary (CHO, ATCC; American Cell Line No. CCL-61) cells expressing the adenosine A1 and A3 receptors were cultured in F-12 (Gibco Co., USA) medium supplemented with 10% fetal bovine serum (FBS) and penicillin/streptomycin (100 units/ml and 100 μg/ml) at 37° C. and 5% carbon dioxide. […] Various concentrations of the derivatives of the present invention are first dissolved in dimethylsulfoxide (DMSO) and then diluted with buffer solution and the final concentration of DMSO should not exceed 1%, and the cells are incubated in a 37° C. thermostat for 1 hour and the cells were rapidly filtered under reduced pressure using a cell collector (TOMTEC Co., USA). Subsequently, the test tube was washed three times with 3 ml buffer, and radioactivity was determined using a γ-counter. […] Specific binding was calculated by subtracting non-specific binding from total binding. From the measured specific binding, the bonding affinity of each sample of the various receptors was determined.

[9] = target: T5, human adenosine A1 receptor (hA1) (Homo sapiens, UniProt P30542); assay: Binding affinity for human adenosine A1 receptor (CHO cells, [3H]CCPA); conditions: test concentration not given
T5 construct: expressed in transfected cells; host or cells: CHO (ATCC CCL-61)
T5 sequence (P30542 1-326): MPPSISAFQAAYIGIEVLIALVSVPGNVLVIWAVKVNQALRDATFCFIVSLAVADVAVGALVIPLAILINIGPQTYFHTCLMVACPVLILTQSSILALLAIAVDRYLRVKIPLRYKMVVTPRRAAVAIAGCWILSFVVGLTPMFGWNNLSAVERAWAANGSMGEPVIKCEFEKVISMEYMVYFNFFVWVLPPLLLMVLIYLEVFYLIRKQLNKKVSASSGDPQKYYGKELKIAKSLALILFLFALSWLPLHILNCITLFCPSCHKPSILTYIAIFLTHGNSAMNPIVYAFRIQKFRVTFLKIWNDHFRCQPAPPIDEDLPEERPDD

[10] = target: T6, human adenosine A2A receptor (hA2A) (Homo sapiens, UniProt P29274); assay: Binding affinity for human adenosine A2A receptor (HEK 293 cells, [3H]CGS-21680); conditions: test concentration not given
T6 construct: expressed in transfected cells; host or cells: HEK 293

[11] = 0.5% in mixed solvent of distilled water and acetone (1:4)
[12] = 0.5% in mixed solvent of DMSO and acetone (1:9)

T6 sequence (P29274 whole entry): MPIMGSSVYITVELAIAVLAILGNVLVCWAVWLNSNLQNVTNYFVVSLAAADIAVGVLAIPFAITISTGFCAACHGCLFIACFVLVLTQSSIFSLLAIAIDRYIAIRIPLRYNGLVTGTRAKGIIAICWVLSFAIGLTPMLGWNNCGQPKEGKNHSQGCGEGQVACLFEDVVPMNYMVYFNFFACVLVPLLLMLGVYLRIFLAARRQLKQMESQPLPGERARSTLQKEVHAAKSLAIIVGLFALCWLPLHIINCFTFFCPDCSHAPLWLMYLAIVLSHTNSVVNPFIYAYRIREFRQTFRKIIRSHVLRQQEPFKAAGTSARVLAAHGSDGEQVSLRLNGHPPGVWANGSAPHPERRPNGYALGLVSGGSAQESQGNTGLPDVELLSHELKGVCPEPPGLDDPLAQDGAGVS

O[C@@H]1[C@H](O)CS[C@H]1n1cnc2c(NCc3cccc(F)c3)nc(Cl)nc21 [Example 1, (2R,3R,4S)-2-(2-chloro-6-(3-fluorobenzylamino)-9H-purin-9-yl)tetrahydrothiophene-3,4-diol]
melting point: 183.2 to 183.5 °C

O[C@@H]1[C@H](O)CS[C@H]1n1cnc2c(NCc3cccc(Br)c3)nc(Cl)nc21 [Example 3, (2R,3R,4S)-2-(2-chloro-6-(3-bromobenzylamino)-9H-purin-9-yl)tetrahydrothiophene-3,4-diol]
TPA-induced mouse ear edema [1]: reduced by a small amount
melting point: 184 to 185 °C

O[C@@H]1[C@H](O)CS[C@H]1n1cnc2c(NCc3cccc(I)c3)nc(Cl)nc21 [Example 4, (2R,3R,4S)-2-(2-chloro-6-(3-iodobenzylamino)-9H-purin-9-yl)tetrahydrothiophene-3,4-diol]
Ki [2]: 3.89 ± 1.15 nM
effect of the agonist Cl-IB-MECA in CHO cells treated with the compound [3]: inhibited depending on the concentration
TPA-induced mouse ear edema [1]: reduced by a small amount
TPA-induced mouse ear edema ([1]; listed as compound 4): had an effect of reducing edema
activity as an agonist or an antagonist at human adenosine A2B receptor [4]: did not show activity as an agonist or an antagonist

O[C@@H]1[C@H](O)CS[C@H]1n1cnc2c(NCc3ccccc3Cl)nc(Cl)nc21 [Example 5, (2R,3R,4S)-2-(2-chloro-6-(2-chlorobenzylamino)-9H-purin-9-yl) tetrahydrothiophene-3,4-diol]
inflammation inhibition rate [1, 11]: 17%
melting point: 198.7 to 199.7 °C

COc1ccc(Cl)cc1CNc1nc(Cl)nc2c1ncn2[C@@H]1SC[C@@H](O)[C@H]1O [Example 6, (2R,3R,4S)-2-(2-chloro-6-(5-chloro-2-methoxybenzylamino)-9H-purin-9-yl)tetrahydrothiophene-3,4-diol]
inflammation inhibition rate [1, 11]: 34%
melting point: 188.8 to 189.8 °C

COc1ccccc1CNc1nc(Cl)nc2c1ncn2[C@@H]1SC[C@@H](O)[C@H]1O [Example 7, (2R,3R,4S)-2-(2-chloro-6-(2-methoxybenzylamino)-9H-purin-9-yl)tetrahydrothiophene-3,4-diol]
inflammation inhibition rate [1, 11]: 53%
melting point: 188 °C

O=C(O)c1cccc(CNc2nc(Cl)nc3c2ncn3[C@@H]2SC[C@H](O)[C@@H]2O)c1 [Example 9, 3-((2-chloro-9-((2R,3S,4R)-3,4-dihydroxytetrahydrothiophen-2-yl)-9H-purin-6-ylamino)methyl)benzoic acid]
melting point: 254 to 256.9 °C

O[C@@H]1[C@H](O)CS[C@H]1n1cnc2c(NCc3cccc(Br)c3)ncnc21 [Example 13, (2R,3R,4S)-2-(6-(3-bromobenzylamino)-9H-purin-9-yl)tetrahydrothiophene-3,4-diol]
melting point: 183 to 184 °C

O[C@@H]1[C@H](O)CS[C@H]1n1cnc2c(NCc3cccc(I)c3)ncnc21 [Example 14, (2R,3R,4S)-2-(6-(3-iodobenzylamino)-9H-purin-9-yl) tetrahydrothiophene-3,4-diol]
melting point: 198.8 to 199.8 °C

O[C@@H]1[C@H](O)CO[C@H]1n1cnc2c(NCc3cccc(Br)c3)nc(Cl)nc21 [Example 15, (2R,3R,4R)-2-(6-(3-bromobenzylamino)-2-chloro-9H-purin-9-yl)tetrahydrofuran-3,4-diol]
inflammation inhibition rate [1, 12]: 59%
melting point: 181.5 to 181.7 °C

O[C@@H]1[C@H](O)CO[C@H]1n1cnc2c(NCc3cccc(I)c3)nc(Cl)nc21 [Example 16, (2R,3R,4R)-2-(6-(3-iodobenzylamino)-2-chloro-9H-purin-9-yl)tetrahydrofuro-3,4-diol]
inflammation inhibition rate [1, 12]: 79%
melting point: 195.5 to 195.8 °C

CC(=O)Nc1nnc(S(N)(=O)=O)s1 [acetazolamide, reference compound]
protein and mRNA expression levels of TIMP enzyme compared with the normal group [5]: significantly increased
expression of fibronectin, SMA and MYOC protein in trabecular meshwork tissue [6]: increased expression
protein and mRNA expression levels of MMP enzyme compared with the normal group [7]: significantly decreased

(2R,3R,4S)-2-(2-chloro-6-(naphthalen-1-ylmethylbenzylamino)-9H-purin-9-yl)tetrahydrothiophene-3,4-diol [Example 8]
Ki [8]: 24.8 ± 8.1 nM
% hA1 [9]: 22.0%
% hA2A [10]: −8.3%
